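Five compound concentrations were applied to cells in 96-well plates for 48 hours; endpoints were derived by simple linear interpolation of the resulting dose-response curve. GI50: concentration for 50% inhibition of growth. Definition used: TGI = concentration required for complete inhibition of growth.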
Assays:
Experiment in all cases: NCI tumour cell line growth inhibition, 48 h
[1] = system: SK-MEL-28 melanoma
[2] = system: A549 NSCLC
[3] = system: T-47D breast
[4] = system: MDA-MB-435
[5] = system: SN12C renal
[6] = system: OVCAR-5 ovarian
[7] = system: HS 578T breast
[8] = system: NCI-H460 lung
[9] = system: CCRF-CEM leukemia
[10] = system: HT29 colon
[11] = system: PC-3 prostate
[12] = system: 786-0 renal
[13] = system: RXF 393 renal
[14] = system: OVCAR-4 ovarian
[15] = system: MCF7 breast
[16] = system: TK-10 renal
[17] = system: UO-31 renal
[18] = system: SK-MEL-5 melanoma
[19] = system: EKVX NSCLC
[20] = system: HL-60(TB) leukemia
[21] = system: A498 renal
[22] = system: HCT-15 colon
[23] = system: SK-MEL-2 melanoma
[24] = system: OVCAR-3 ovarian
[25] = system: SF-295 CNS
[26] = system: SNB-19 CNS
[27] = system: IGROV1 ovarian
[28] = system: SF-268 CNS
[29] = system: NCI-H522 lung
[30] = system: SNB-75 CNS
[31] = system: UACC-257 melanoma
[32] = system: BT-549 breast
[33] = system: OVCAR-8 ovarian
[34] = system: SR leukemia
[35] = system: HOP-92 NSCLC
[36] = system: MOLT-4 leukemia
[37] = system: DU-145 prostate
[38] = system: SW-620 colon
[39] = system: CAKI-1 renal
[40] = system: NCI-H226 lung
[41] = system: MDA-MB-231 breast
[42] = system: HOP-62 NSCLC
[43] = system: U251 CNS
[44] = system: LOX IMVI melanoma
[45] = system: SK-OV-3 ovarian
[46] = system: UACC-62 melanoma
[47] = system: NCI/ADR-RES ovarian
[48] = system: M14 melanoma
[49] = system: KM12 colon
[50] = system: COLO 205 colon
[51] = system: SF-539 CNS
[52] = system: NCI-H23 lung
[53] = system: ACHN renal
[54] = system: HCT-116 colon
[55] = system: RPMI-8226 leukemia
[56] = system: HCC-2998 colon
[57] = system: MALME-3M melanoma
[58] = system: K-562 leukemia

Compound `COc1cc2nccc(Oc3ccc(NC(=O)C4(C(=O)Nc5ccc(F)cc5)CC4)cc3)c2cc1Oc1ccc(N)cn1` has a GI50 [1] of 2.56 µM, a TGI [1] of 32 µM and a GI50 [2] of 2.38 µM. The TGI [2] was 9.05 µM, the GI50 [3] was 1.91 µM and the TGI [3] was 9.91 µM. It also gave a GI50 [4] of 1.83 µM, a TGI [4] of 6.1 µM and a GI50 [5] of 1.1 µM. The TGI [5] was > 100 µM, the GI50 [6] was 2.49 µM and the TGI [6] was 39 µM. The GI50 [7] was 1.65 µM, the TGI [7] was 7.39 µM and the GI50 [8] was 3.26 µM. The TGI [8] was 18.7 µM, the GI50 [9] was 3.95 µM and the TGI [9] was > 100 µM. The GI50 [10] was 1.92 µM, the TGI [10] was 7.6 µM and the GI50 [11] was 3.12 µM. For the same compound, the TGI [11] was > 100 µM, the GI50 [12] was 3.6 µM and the TGI [12] was 94.7 µM. For the same compound, the GI50 [13] was 1.72 µM, the TGI [13] was 4.72 µM and the GI50 [14] was 3.73 µM. The TGI [14] was > 100 µM, the GI50 [15] was 2.28 µM and the TGI [15] was > 100 µM. For the same compound, the GI50 [16] was 3.65 µM, the TGI [16] was > 100 µM and the GI50 [17] was 2.36 µM. It also gave a TGI [17] of 9.32 µM, a GI50 [18] of 2.03 µM and a TGI [18] of 4.43 µM. The GI50 [19] was 3.21 µM, the TGI [19] was > 100 µM and the GI50 [20] was 2.26 µM. For the same compound, the TGI [20] was 5.23 µM, the GI50 [21] was 1.6 µM and the TGI [21] was 4.33 µM. The GI50 [22] was 3.04 µM, the TGI [22] was > 100 µM and the GI50 [23] was 2.5 µM. The TGI [23] was 6.52 µM, the GI50 [24] was 3.68 µM and the TGI [24] was > 100 µM. For the same compound, the GI50 [25] was 0.254 µM, the TGI [25] was 4.28 µM and the GI50 [26] was 4.49 µM. The TGI [26] was > 100 µM, the GI50 [27] was 1.36 µM and the TGI [27] was 3.94 µM. The GI50 [28] was 3.11 µM, the TGI [28] was > 100 µM and the GI50 [29] was 2.25 µM. The TGI [29] was 12.7 µM, the GI50 [30] was 1.41 µM and the TGI [30] was 4.21 µM. The GI50 [31] was 2.74 µM, the TGI [31] was 51.3 µM and the GI50 [32] was 3.8 µM. The TGI [32] was > 100 µM, the GI50 [33] was 3.77 µM and the TGI [33] was > 100 µM. For the same compound, the GI50 [34] was 3.25 µM, the TGI [34] was > 100 µM and the GI50 [35] was 0.0492 µM. For the same compound, the TGI [35] was 3.03 µM, the GI50 [36] was 3.12 µM and the TGI [36] was > 100 µM. The GI50 [37] was 4.5 µM, the TGI [37] was > 100 µM and the GI50 [38] was 2.57 µM. The TGI [38] was > 100 µM, the GI50 [39] was 1.85 µM and the TGI [39] was 5.48 µM. The GI50 [40] was 1.5 µM, the TGI [40] was 9.07 µM and the GI50 [41] was 2.44 µM. It also gave a TGI [41] of 8.42 µM, a GI50 [42] of 2.83 µM and a TGI [42] of 84.3 µM. For the same compound, the GI50 [43] was 2.82 µM, the TGI [43] was 16.6 µM and the GI50 [44] was 1.75 µM. For the same compound, the TGI [44] was 3.49 µM, the GI50 [45] was 3.52 µM and the TGI [45] was > 100 µM. The GI50 [46] was 1.33 µM, the TGI [46] was 7.03 µM and the GI50 [47] was 3.83 µM. For the same compound, the TGI [47] was > 100 µM, the GI50 [48] was 2.66 µM and the TGI [48] was 34.8 µM. For the same compound, the GI50 [49] was 0.0442 µM, the TGI [49] was 3.1 µM and the GI50 [50] was 2.13 µM. It also gave a TGI [50] of 5.64 µM, a GI50 [51] of 0.854 µM and a TGI [51] of 4.84 µM. For the same compound, the GI50 [52] was 2.57 µM, the TGI [52] was > 100 µM and the GI50 [53] was 2.76 µM. The TGI [53] was 10.2 µM, the GI50 [54] was 3.33 µM and the TGI [54] was > 100 µM. The GI50 [55] was 3.99 µM, the TGI [55] was 78.6 µM and the GI50 [56] was 2.58 µM. The TGI [56] was 7.49 µM, the GI50 [57] was 2.09 µM and the TGI [57] was 8.52 µM. For the same compound, the GI50 [58] was 0.9 µM and the TGI [58] was > 100 µM.
